Results reported in patent US20070128217A1 (priority 2003, published 2007).

Columns and labels:
[1] = system: antibodies in sera from SARS patients (sera 1a, 1b, 2, 6, 37, 62, London, SARS-yellow, SARS-green); type: binding, human; set-up: Binding of serum 6 to linear peptides of protein X1 of SARS-CoV Urbani / Binding of serum 37 to linear peptides of protein X1 of SARS-CoV Urbani / Binding of serum 6 to looped/cyclic peptide (PEPSCAN-ELISA) / Binding of serum 37 to looped/cyclic peptide (PEPSCAN-ELISA) / Binding of serum 37 to looped/cyclic peptides of protein X1 of SARS-CoV Urbani / Binding of serum 6 to linear peptides of protein X2 / Binding of serum 37 to linear peptides of protein X2 / Binding of serum 37 to looped/cyclic peptides of protein X2 of SARS-CoV Urbani / Binding of serum 6 to linear peptides of protein M of SARS-CoV Urbani / Binding of serum 37 to linear peptides of protein M of SARS-CoV Urbani / Binding of serum 6 to looped/cyclic peptides of protein M of SARS-CoV Urbani / Binding of serum 37 to looped/cyclic peptides of protein M of SARS-CoV Urbani / Binding of serum 6 to linear peptides of protein X3 of SARS-CoV Urbani / Binding of serum 37 to linear peptides of protein X3 of SARS-CoV Urbani / Binding of serum 37 to looped/cyclic peptides of protein X3 of SARS-CoV Urbani / Binding of serum 6 to linear peptides of protein X4 of SARS-CoV Urbani / Binding of serum 37 to linear peptides of protein X4 of SARS-CoV Urbani / Binding of serum 37 to looped/cyclic peptides of protein X4 of SARS-CoV Urbani / Binding of serum 6 to linear peptides of protein X5 of SARS-CoV Urbani / Binding of serum 37 to linear peptides of protein X5 of SARS-CoV Urbani / Binding of serum 37 to looped/cyclic peptides of protein X5 of SARS-CoV Urbani / Binding of serum 6 to linear peptides of protein N of SARS-CoV Urbani / Binding of serum 37 to linear peptides of protein N of SARS-CoV Urbani / Binding of serum 6 to linear peptide (PEPSCAN-ELISA) / Binding of serum 1a to looped/cyclic peptides of protein N of SARS-CoV Urbani / Binding of serum 1b to looped/cyclic peptides of protein N of SARS-CoV Urbani / Binding of serum 2 to looped/cyclic peptides of protein N of SARS-CoV Urbani / Binding of serum 6 to looped/cyclic peptides of protein N of SARS-CoV Urbani / Binding of serum 37 to looped/cyclic peptides of protein N of SARS-CoV Urbani / Binding of serum 62 to looped/cyclic peptides of protein N of SARS-CoV Urbani / Binding of serum London to looped/cyclic peptides of protein N of SARS-CoV Urbani / Binding of serum SARS-green to looped/cyclic peptides of protein N of SARS-CoV Urbani: unit not given here
[2] = system: rabbit serum obtained by immunizing a rabbit with the SARS-CoV strain Frankfurt 1; type: binding; set-up: Binding of a rabbit serum to linear peptides / Binding of a rabbit serum to looped peptides / Rabbit serum linear peptides / Rabbit serum looped peptides / Binding of a rabbit serum to linear peptides of protein N of SARS-CoV Urbani (Rabbit serum linear peptides) / Binding of a rabbit serum to looped/cyclic peptides of protein N of SARS-CoV Urbani (Rabbit serum looped peptides): unit not given here
[3] = system: control sera (pooled serum of ten healthy LUMC hospital workers; commercial negative donor pooled serum from the Dutch bloodbank); type: binding, human; set-up: Binding of Control serum LUMC to linear peptides / Binding of Control serum Blood-bank to linear peptides / Binding of Control serum LUMC to looped peptides / Binding of Control Serum Blood-Bank to Looped peptides / Binding of Control serum LUMC to linear peptides of the protein M of SARS-CoV Urbani / Binding of Control serum Blood-bank to linear peptides of the protein M of SARS-CoV Urbani / Binding of Control serum LUMC to looped peptides of the protein M of SARS-CoV Urbani / Binding of Control Serum Blood-Bank to Looped peptides of the protein M of SARS-CoV Urbani: unit not given here
[4] = system: recombinant human anti-SARS-CoV antibody 03-018; type: binding; set-up: Binding of antibody 03-018 to linear peptides of the N protein of SARS-CoV Urbani / Binding of antibody 03-018 to looped/cyclic peptides of the N protein of SARS-CoV Urbani: unit not given here

Sequence | Binding of serum 1a to looped/cyclic peptides of protein N of SARS-CoV Urbani [1] | Binding of serum 1b to looped/cyclic peptides of protein N of SARS-CoV Urbani [1] | Binding of serum 2 to looped/cyclic peptides of protein N of SARS-CoV Urbani [1] | Binding of serum 6 to looped/cyclic peptides of protein N of SARS-CoV Urbani [1] | Binding of serum 37 to looped/cyclic peptides of protein N of SARS-CoV Urbani [1] | Binding of serum 62 to looped/cyclic peptides of protein N of SARS-CoV Urbani [1] | Binding of serum London to looped/cyclic peptides of protein N of SARS-CoV Urbani [1] | Binding of serum SARS-green to looped/cyclic peptides of protein N of SARS-CoV Urbani [1] | Binding of serum SARS-yellow to looped/cyclic peptides of protein N of SARS-CoV Urbani [1] | Binding of a rabbit serum to linear peptides of protein N of SARS-CoV Urbani (Rabbit serum linear peptides) [2] | Binding of a rabbit serum to looped/cyclic peptides of protein N of SARS-CoV Urbani (Rabbit serum looped peptides) [2] | Binding of antibody 03-018 to linear peptides of the N protein of SARS-CoV Urbani [4] | Binding of antibody 03-018 to looped/cyclic peptides of the N protein of SARS-CoV Urbani [4] | also measured
GNSRNSTPGSSRGNS | 0.6 | 0.5 | 0.4 | 0.4 | 0.5 | 0.5 | 0.3 | 0.1 | 0.5 | 0.2 | 0.8 | 0.1 | 0.2 | Binding of serum 1a to linear peptide (PEPSCAN-ELISA) [1]: 0.7; Binding of serum 1b to linear peptide (PEPSCAN-ELISA) [1]: 0.5; Binding of serum 2 to linear peptide (PEPSCAN-ELISA) [1]: 0.2; Binding of serum 6 to linear peptide (PEPSCAN-ELISA) [1]: 0.2; Binding of serum 37 to linear peptide (PEPSCAN-ELISA) [1]: 0.7; Binding of serum 62 to linear peptide (PEPSCAN-ELISA) [1]: 0.7; Binding of serum London to linear peptide (PEPSCAN-ELISA) [1]: 0.5; Binding of serum SARS-green to linear peptide (PEPSCAN-ELISA) [1]: 0.2; Binding of serum SARS-yellow to linear peptide (PEPSCAN-ELISA) [1]: 0.7; Binding of Control Serum Blood-Bank to Looped peptides [3]: 0.6; Binding of Control serum Blood-bank to linear peptides [3]: 0.8; Binding of Control serum LUMC to linear peptides [3]: 0.7; Binding of Control serum LUMC to looped peptides [3]: 0.7
QGTDYKHWPQIAQFA | 0.4 | 0.3 | 0.4 | 0.3 | 0.6 | 0.6 | 0.5 | 0.3 | 0.7 | 0.2 | 0.3 | 0.1 | 0.2 | Binding of serum 1a to linear peptides of protein N of SARS-CoV Urbani [1]: 0.3; Binding of serum 1b to linear peptides of protein N of SARS-CoV Urbani [1]: 0.2; Binding of serum 2 to linear peptides of protein N of SARS-CoV Urbani [1]: 0.2; Binding of serum 6 to linear peptides of protein N of SARS-CoV Urbani [1]: 0.2; Binding of serum 37 to linear peptides of protein N of SARS-CoV Urbani [1]: 0.8; Binding of serum 62 to linear peptides of protein N of SARS-CoV Urbani [1]: 0.8; Binding of serum London to linear peptides of protein N of SARS-CoV Urbani [1]: 0.7; Binding of serum SARS-green to linear peptides of protein N of SARS-CoV Urbani [1]: 0.2; Binding of serum SARS-yellow to linear peptides of protein N of SARS-CoV Urbani [1]: 0.7; Control Serum Blood-Bank Looped peptides [3]: 0.6; Control serum Blood-bank linear peptides [3]: 0.8; Control serum LUMC linear peptides [3]: 0.6; Control serum LUMC looped peptides [3]: 0.7
